Measurements taken from PubChem BioAssay (NCI).
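Five concentrations, 48 hours, 96-well plates. TGI denotes the concentration required for complete inhibition of growth.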

Legend:
Assay in all cases: NCI-60 cell line screen, 48 h
SF-295 CNS = system: SF-295 CNS
SK-MEL-28 melanoma = system: SK-MEL-28 melanoma
NCI/ADR-RES ovarian = system: NCI/ADR-RES ovarian
A549 NSCLC = system: A549 NSCLC
ACHN renal = system: ACHN renal
HS 578T breast = system: HS 578T breast
T-47D breast = system: T-47D breast
786-0 renal = system: 786-0 renal
SK-OV-3 ovarian = system: SK-OV-3 ovarian
LOX IMVI melanoma = system: LOX IMVI melanoma
TK-10 renal = system: TK-10 renal
CAKI-1 renal = system: CAKI-1 renal
K-562 leukemia = system: K-562 leukemia
SNB-75 CNS = system: SNB-75 CNS
NCI-H226 lung = system: NCI-H226 lung
OVCAR-5 ovarian = system: OVCAR-5 ovarian
UACC-62 melanoma = system: UACC-62 melanoma
SN12C renal = system: SN12C renal
PC-3 prostate = system: PC-3 prostate
MDA-MB-231 breast = system: MDA-MB-231 breast
HOP-62 NSCLC = system: HOP-62 NSCLC
RXF 393 renal = system: RXF 393 renal
SF-268 CNS = system: SF-268 CNS
BT-549 breast = system: BT-549 breast
HT29 colon = system: HT29 colon
SF-539 CNS = system: SF-539 CNS
HCT-15 colon = system: HCT-15 colon
MALME-3M melanoma = system: MALME-3M melanoma
MCF7 breast = system: MCF7 breast
MDA-MB-435 = system: MDA-MB-435
SK-MEL-5 melanoma = system: SK-MEL-5 melanoma
HCT-116 colon = system: HCT-116 colon
UO-31 renal = system: UO-31 renal
U251 CNS = system: U251 CNS
COLO 205 colon = system: COLO 205 colon
UACC-257 melanoma = system: UACC-257 melanoma
CCRF-CEM leukemia = system: CCRF-CEM leukemia
M14 melanoma = system: M14 melanoma
NCI-H23 lung = system: NCI-H23 lung
RPMI-8226 leukemia = system: RPMI-8226 leukemia
A498 renal = system: A498 renal
DU-145 prostate = system: DU-145 prostate
HL-60(TB) leukemia = system: HL-60(TB) leukemia
OVCAR-4 ovarian = system: OVCAR-4 ovarian
HOP-92 NSCLC = system: HOP-92 NSCLC
OVCAR-3 ovarian = system: OVCAR-3 ovarian
IGROV1 ovarian = system: IGROV1 ovarian
SNB-19 CNS = system: SNB-19 CNS
EKVX NSCLC = system: EKVX NSCLC
MOLT-4 leukemia = system: MOLT-4 leukemia
OVCAR-8 ovarian = system: OVCAR-8 ovarian
SK-MEL-2 melanoma = system: SK-MEL-2 melanoma
SR leukemia = system: SR leukemia

## CN1CN(c2ccccc2)C2(CCN(Cc3nc4ccccc4s3)CC2)C1=O
SF-295 CNS
  TGI: 32 µM
SK-MEL-28 melanoma
  TGI: 31.5 µM
NCI/ADR-RES ovarian
  TGI: 33.5 µM
A549 NSCLC
  TGI: 33.4 µM
ACHN renal
  TGI: 39.8 µM
HS 578T breast
  TGI: 41.8 µM
T-47D breast
  TGI: 32 µM
786-0 renal
  TGI: 31.3 µM
SK-OV-3 ovarian
  TGI: 52.7 µM
LOX IMVI melanoma
  TGI: 34.9 µM
TK-10 renal
  TGI: 34.9 µM
CAKI-1 renal
  TGI: 49.6 µM
K-562 leukemia
  TGI: 32.4 µM
SNB-75 CNS
  TGI: 32.6 µM
NCI-H226 lung
  TGI: 36.2 µM
OVCAR-5 ovarian
  TGI: 34.1 µM
UACC-62 melanoma
  TGI: 30.1 µM
SN12C renal
  TGI: 31.7 µM
PC-3 prostate
  TGI: 28.8 µM
MDA-MB-231 breast
  TGI: 27.2 µM
HOP-62 NSCLC
  TGI: 30.7 µM
RXF 393 renal
  TGI: 29.9 µM
SF-268 CNS
  TGI: 44.3 µM
BT-549 breast
  TGI: 30.3 µM
HT29 colon
  TGI: 30.7 µM
SF-539 CNS
  TGI: 32.4 µM
HCT-15 colon
  TGI: 35.1 µM
MALME-3M melanoma
  TGI: 31.8 µM
MCF7 breast
  TGI: 29.5 µM
MDA-MB-435
  TGI: 32.3 µM
SK-MEL-5 melanoma
  TGI: 29.6 µM
HCT-116 colon
  TGI: 28.1 µM
UO-31 renal
  TGI: 29 µM
U251 CNS
  TGI: 30 µM
COLO 205 colon
  TGI: 32.1 µM
UACC-257 melanoma
  TGI: 30.4 µM
CCRF-CEM leukemia
  TGI: 41.6 µM
M14 melanoma
  TGI: 26.3 µM
NCI-H23 lung
  TGI: 34.2 µM
RPMI-8226 leukemia
  TGI: 36.2 µM
A498 renal
  TGI: 30.7 µM
DU-145 prostate
  TGI: 38.3 µM
HL-60(TB) leukemia
  TGI: 29.1 µM
OVCAR-4 ovarian
  TGI: 38 µM
HOP-92 NSCLC
  TGI: 28.5 µM
OVCAR-3 ovarian
  TGI: 32.4 µM
IGROV1 ovarian
  TGI: 30.4 µM
SNB-19 CNS
  TGI: 28.6 µM
EKVX NSCLC
  TGI: 48.3 µM
MOLT-4 leukemia
  TGI: 34.3 µM
OVCAR-8 ovarian
  TGI: 28.8 µM
SK-MEL-2 melanoma
  TGI: 34.1 µM
SR leukemia
  TGI: 33.9 µM
